Test results from patent US20240423995A1, “C-KIT INHIBITORS AND USES FOR TREATING AND PREVENTING INFLAMMATORY CONDITIONS” (GEORGETOWN UNIVERSITY, priority 2023, published 2024).

How the values were obtained:
KIT (L576P) = target: T1, KIT (L576P) (Homo sapiens, UniProt P10721, L576P); assay: KINOMEscan competition binding screen, KIT (L576P); settings: for remaining binding at 10 µM: read-out: % Ctrl @ 10 μM
T1 construct: purchased Eurofins DiscoverX Corporation
Experimental: (§1) The KINOMEscan™ screening platform (Eurofins DiscoverX Corporation, San Diego, USA) was performed using an active site-directed competition binding assay to quantitatively measure interactions between BK40143, BK40197, BK40195, and BK40196 and more than 450 human kinases and disease relevant mutant variants. […] Screening “hits” were identified by measuring the amount of kinase captured in test (BK40143, BK40197, BK40195, and BK40196) versus control samples by using a quantitative and ultra-sensitive qPCR method that detects the associated DNA label. BK40143, BK40197, BK40195, and BK40196 were screened at 10 μM concentration, and results for primary screen binding interactions were reported as ‘% Ctrl’ (POC), where lower numbers indicate stronger hits and calculated as follows:
(§2) [formula] • test compound=BK40143 or BK40197 or BK40195 or BK40196 • negative control=DMSO (100% Ctrl) • positive control=control compound (0% Ctrl)
(§3) Based on screening data of profiled compounds, a proportional relationship between primary screening results and corresponding compound/target affinities can be described as binding constants (Kd values) for the indicated ranges of percent of control (PoC) values, with tighter binding (higher affinity) interactions associated with lower PoC values, and weaker binding (lower affinity) associated with higher PoC values. Briefly, kinase-tagged T7 phage strains were grown in parallel in 24-well blocks in an E. coli host derived from the BL21 strain. E. coli were grown to log-phase and infected with T7 phage from a frozen stock (multiplicity of infection=0.4) and incubated with shaking at 32° C. until lysis (90-150 minutes). The lysates were centrifuged (6,000×g) and filtered ([…]) to remove cell debris. The remaining kinases were produced in HEK-293 cells and subsequently tagged with DNA for qPCR detection. Streptavidin-coated magnetic beads were treated with biotinylated small molecule ligands for 30 minutes at room temperature to generate affinity resins for kinase assays. The liganded beads were blocked with excess biotin and washed with blocking buffer (SeaBlock (Pierce), 1% BSA, 0.05% Tween 20, 1 mM DTT) to remove unbound ligand and to reduce non-specific phage binding. Binding reactions were assembled by combining kinases, liganded affinity beads, and test compounds in 1× binding buffer (20% SeaBlock, 0.17×PBS, 0.05% Tween 20, 6 mM DTT). Test compounds were prepared as 100× stocks in 100% DMSO and directly diluted into the assay. All reactions were performed in polypropylene 384-well plates in a final volume of 0.02 ml. The assay plates were incubated at room temperature with shaking for 1 hour and the affinity beads were washed with wash buffer (1×PBS, 0.05% Tween 20). The beads were then re-suspended in elution buffer (1×PBS, 0.05% Tween 20, 0.5 μM non-biotinylated affinity ligand) and incubated at room temperature with shaking for 30 minutes. The kinase concentration in the eluates was measured by qPCR.

KIT (V559D, V654A) = target: T2, KIT (V559D, V654A) (Homo sapiens, UniProt P10721, V559D/V654A); assay: KINOMEscan competition binding screen, KIT (V559D, V654A); settings: for remaining binding at 10 µM: read-out: % Ctrl @ 10 μM
T2 construct: purchased Eurofins DiscoverX Corporation
Experimental: as §1, §2, §3

SYK = target: T3, SYK (Homo sapiens, UniProt P43405); assay: KINOMEscan competition binding screen, SYK; settings: for remaining binding at 10 µM: read-out: % Ctrl @ 10 μM
T3 construct: purchased Eurofins DiscoverX Corporation
Experimental: as §1, §2, §3

LUVA cells = assay: MC maturation in LUVA cells by flow cytometry (CD117, FceR1); assay type: cell-based, human; settings: 100 ng/mL SCF overnight, then 10 nM, 100 nM, 1 μM compound for 48 hours, vs DMSO
Experimental: A human mast cell (MC) line that arose spontaneously from a culture of non-transformed hematopoietic progenitor cells is described in J Allergy Clin Immunol, 2011, 127:815-22, which is incorporated herein by reference. The cells, termed LUVA cells, are an immortalized human MC line that can be maintained without stem cell factor (SCF) and that display high levels of normally signaling c-kit and FceR1.
The LUVA cells (Kerafast, EG1701-FP) were cultured in StemPro-34 serum-free media with 10% nutrient supplement, 1% L-glutamine, and 1% pen/strep and grown under normal atmospheric conditions (5% CO2). The cells were plated and treated with 100 ng/mL of SCF overnight and then treated with DMSO or an ascending dose of either BK40143, BK40196, or BK40197 for 48 hours, before collection and incubation with two flow-conjugated antibodies (PE anti-mouse CD117 (c-kit) and APC/fire 750 anti-mouse FceR1a) and subsequent analysis via flow cytometry. Group differences were compared using unpaired Student's t-tests.

mast cell degranulation = assay: Compound 48/80-induced mast cell degranulation in wild type C57BL/6 mice, toluidine blue blood smear; assay type: in vivo; settings: for mast cell degranulation 0.5-1.5 hours post-injection of C48/40: approximately two hours before I.P. injection of compound 48/80, toluidine blue blood smear; for effect on mast cell degranulation induced by C48/40: single I.P. injection two hours prior to compound 48/80 treatment, blood smear
Experimental: Wild type C57BL/6J mice were treated with C48/40 to induce mast cell activation. Compound 48/80 is a polymer produced by the condensation of N-methyl-p-methoxyphenethylamine with formaldehyde. It promotes histamine release, and in biochemical research, compound 48/80 (for example, Catalog No. C2313, Sigma-Aldrich, St. Louis, MO) is used to promote mast cell degranulation. Male and female, 4-8 months old wild type C57BL/6 mice were treated only once with intraperitoneal (I.P.) injection of DMSO (control) or DMSO for 2 hours followed by C48/40 for 0.5-1.5 hours. Mice were injected with DMSO approximately 2 hours prior to injection (IP) with 50 μg C48/40 to show degranulation of mast cells 0.5-1.5 hours post-injection of C48/40. Animals were also injected with 20 mg/kg BK40197, BK40195 or BK40196; or 10 mg/kg BK40143 approximately two hours before I.P. injection of C48/40 to show the effects of the drugs on mast cell degranulation approximately 0.5-1.5 hours post-injection of C48/40. Drugs and C48/40 were injected on the same site. n=6 per treatment. Blood was collected and a smear was prepared and stained with Toluidine blue to show mast cell morphology.

KIT = target: T4, KIT (Homo sapiens, UniProt P10721); assay: KINOMEscan competition binding screen, KIT; settings: for remaining binding at 10 µM: lower = stronger binding, read-out: % Ctrl @ 10 μM
T4 construct: purchased Eurofins DiscoverX Corporation
Experimental: as §1, §2, §3

KIT (V559D) = target: T5, KIT (V559D) (Homo sapiens, UniProt P10721, V559D); assay: KINOMEscan competition binding screen, KIT (V559D); settings: for remaining binding at 10 µM: read-out: % Ctrl @ 10 μM
T5 construct: purchased Eurofins DiscoverX Corporation
Experimental: as §1, §2, §3

T4 sequence (P10721 26-976): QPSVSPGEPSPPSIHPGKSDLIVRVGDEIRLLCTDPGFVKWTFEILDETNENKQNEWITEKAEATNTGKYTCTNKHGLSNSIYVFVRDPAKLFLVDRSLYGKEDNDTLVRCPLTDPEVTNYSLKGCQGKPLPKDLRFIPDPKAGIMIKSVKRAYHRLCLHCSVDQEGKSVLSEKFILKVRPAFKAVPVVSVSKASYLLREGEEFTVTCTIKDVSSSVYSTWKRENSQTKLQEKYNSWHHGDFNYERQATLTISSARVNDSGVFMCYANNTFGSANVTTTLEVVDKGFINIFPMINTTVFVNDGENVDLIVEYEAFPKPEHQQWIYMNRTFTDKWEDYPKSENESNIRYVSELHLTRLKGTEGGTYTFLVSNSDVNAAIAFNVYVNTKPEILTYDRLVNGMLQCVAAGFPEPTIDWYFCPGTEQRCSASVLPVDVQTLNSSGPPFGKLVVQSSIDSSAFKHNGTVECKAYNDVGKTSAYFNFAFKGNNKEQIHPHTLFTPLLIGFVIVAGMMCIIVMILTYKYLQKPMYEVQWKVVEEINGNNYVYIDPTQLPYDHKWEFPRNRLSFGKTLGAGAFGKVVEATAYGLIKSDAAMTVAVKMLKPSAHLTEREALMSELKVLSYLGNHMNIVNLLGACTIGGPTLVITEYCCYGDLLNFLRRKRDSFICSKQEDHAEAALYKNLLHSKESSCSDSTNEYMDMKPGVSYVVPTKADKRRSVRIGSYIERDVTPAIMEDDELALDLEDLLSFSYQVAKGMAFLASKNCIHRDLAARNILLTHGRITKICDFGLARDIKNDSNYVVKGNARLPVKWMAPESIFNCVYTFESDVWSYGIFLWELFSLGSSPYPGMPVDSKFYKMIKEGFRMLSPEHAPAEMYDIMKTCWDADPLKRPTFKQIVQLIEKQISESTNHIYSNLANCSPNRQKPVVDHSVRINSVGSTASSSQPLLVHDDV
T5 sequence (P10721 26-976 V559D): as the sequence (P10721 26-976) above, with V534D counted along it
T2 sequence (P10721 26-976 V559D/V654A): as the sequence (P10721 26-976) above, with V534D, V629A counted along it
T1 sequence (P10721 26-976 L576P): as the sequence (P10721 26-976) above, with L551P counted along it

inhibition at 10 µM (KIT (L576P))	remaining binding at 10 µM (KIT (L576P))	inhibition at 10 µM (KIT (V559D, V654A))	remaining binding at 10 µM (KIT (V559D, V654A))	inhibition at 10 µM (SYK)	remaining binding at 10 µM (SYK)	inhibition at 10 µM (KIT)	remaining binding at 10 µM (KIT)	inhibition at 10 µM (KIT (V559D))	remaining binding at 10 µM (KIT (V559D))	Structure (SMILES)	number of immature MCs (CD117 only) compared to mature MCs (CD117 and FceR1) (LUVA cells)	mast cell degranulation 0.5-1.5 hours post-injection of C48/40 (mast cell degranulation; 10 mg/kg)	effect on mast cell degranulation induced by C48/40 (mast cell degranulation)	mast cell degranulation 0.5-1.5 hours post-injection of C48/40 (mast cell degranulation; 20 mg/kg)
96.5%	3.5%	82%	18%	94.5%	5.5%	100%	0%	99.8%	0.25%	Cc1cccc(-c2cc3nccc(Nc4ccccc4)c3s2)c1 [BK40143]	significantly increased	absence of mast cell degranulation	significantly prevented mast cell degranulation	
91.9%	8.1%	97.5%	2.5%	88%	12%	100%	0%	99.8%	0.2%	COc1cccc(Nc2ccnc3cc(-c4cccc(C)c4)sc23)c1 [BK40195]			significantly prevented mast cell degranulation	absence of mast cell degranulation
99.2%	0.8%	98.7%	1.3%	97.7%	2.3%	100%	0%	100%	0%	Cc1cccc(-c2cc3nccc(Nc4cccc(O)c4)c3s2)c1 [BK40196]	significantly increased	absence of mast cell degranulation	significantly prevented mast cell degranulation	

Structure (SMILES)	inhibition at 10 µM (KIT (L576P))	remaining binding at 10 µM (KIT (L576P))	inhibition at 10 µM (KIT (V559D, V654A))	remaining binding at 10 µM (KIT (V559D, V654A))	inhibition at 10 µM (SYK)	remaining binding at 10 µM (SYK)	inhibition at 10 µM (KIT)	remaining binding at 10 µM (KIT)	inhibition at 10 µM (KIT (V559D))	remaining binding at 10 µM (KIT (V559D))	number of immature MCs (CD117 only) compared to mature MCs (CD117 and FceR1) (LUVA cells)	mast cell degranulation 0.5-1.5 hours post-injection of C48/40 (mast cell degranulation; 10 mg/kg)	effect on mast cell degranulation induced by C48/40 (mast cell degranulation)	mast cell degranulation 0.5-1.5 hours post-injection of C48/40 (mast cell degranulation; 20 mg/kg)
Cc1cccc(-c2cc3nccc(N4CCOCC4)c3s2)c1 [BK40197]	98.2%	1.8%	79%	21%	56%	44%	97.7%	0.3%	99.7%	0.35%	significantly increased		significantly prevented mast cell degranulation	absence of mast cell degranulation
